Laboratory results published in ChEMBL document CHEMBL1124985, “A Free-Wilson/Fujita-Ban analysis and prediction of the analgesic potency of some 3-hydroxy- and 3-methoxy-N-alkylmorphinan-6-one opioids” (J Med Chem, 1990).

Target: Opioid receptor (Mus musculus) (UniProt P42866+P32300+P33534)
Sequence (P32300 whole entry, looked up): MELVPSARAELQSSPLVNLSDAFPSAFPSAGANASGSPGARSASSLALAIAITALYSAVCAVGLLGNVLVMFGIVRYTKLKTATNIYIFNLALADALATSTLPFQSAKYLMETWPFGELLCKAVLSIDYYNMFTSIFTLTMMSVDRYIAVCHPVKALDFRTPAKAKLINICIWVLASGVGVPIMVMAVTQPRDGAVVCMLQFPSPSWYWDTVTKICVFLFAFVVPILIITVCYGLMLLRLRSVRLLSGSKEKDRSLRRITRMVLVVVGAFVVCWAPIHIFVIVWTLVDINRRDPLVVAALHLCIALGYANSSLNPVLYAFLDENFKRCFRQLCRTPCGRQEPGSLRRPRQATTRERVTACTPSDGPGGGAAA
Sequence (P33534 whole entry, looked up): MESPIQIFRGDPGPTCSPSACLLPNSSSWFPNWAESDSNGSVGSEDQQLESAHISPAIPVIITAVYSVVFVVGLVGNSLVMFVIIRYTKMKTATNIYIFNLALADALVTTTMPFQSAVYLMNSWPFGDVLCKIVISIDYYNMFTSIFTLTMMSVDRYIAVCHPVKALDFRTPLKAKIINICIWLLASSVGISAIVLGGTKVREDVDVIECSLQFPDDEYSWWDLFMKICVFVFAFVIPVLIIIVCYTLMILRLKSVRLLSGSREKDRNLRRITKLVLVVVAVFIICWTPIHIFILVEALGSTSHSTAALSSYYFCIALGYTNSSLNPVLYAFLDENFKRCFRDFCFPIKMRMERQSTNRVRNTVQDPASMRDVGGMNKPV
Sequence (P42866 whole entry, looked up): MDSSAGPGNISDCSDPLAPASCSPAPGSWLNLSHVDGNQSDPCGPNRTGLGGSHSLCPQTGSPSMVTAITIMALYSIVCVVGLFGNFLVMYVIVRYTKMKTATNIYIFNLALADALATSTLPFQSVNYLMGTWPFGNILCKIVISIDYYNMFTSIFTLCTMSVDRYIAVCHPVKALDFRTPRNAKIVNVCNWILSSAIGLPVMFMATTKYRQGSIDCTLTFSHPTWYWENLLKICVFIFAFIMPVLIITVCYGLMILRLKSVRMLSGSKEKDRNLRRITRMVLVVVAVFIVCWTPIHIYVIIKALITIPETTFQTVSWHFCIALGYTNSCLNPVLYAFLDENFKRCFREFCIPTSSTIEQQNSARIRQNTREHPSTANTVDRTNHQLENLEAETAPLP
Description: Analgesic Potency was tested against mice

| Compound | Log AP |
| --- | --- |
| COc1ccc2c3c1O[C@H]1CC(C)CC4[C@@H](C2)N(C)CC[C@@]341 (some centres undefined) | 5.71 |
| CC1CC[C@]23CCN(CC4CCC4)[C@H](Cc4ccc(O)cc42)C3[C@H]1C (stereo in doubt; 20) | 6.95 |
| C=C1C[C@H](C)[C@H]2[C@H]3Cc4ccc(O)cc4[C@@]2(CCN3CC2CCC2)C1 | 6.07 |
| COc1ccc2c3c1O[C@H]1CCCC4[C@@H](C2)N(CC2CC2)CC[C@@]341 (some centres undefined) | 6.2 |
| CN1CC[C@]23CCCCC2C1Cc1ccc(O)cc13 (some centres undefined) | 5.99 |
| Oc1ccc2c(c1)[C@@]13CCCC[C@H]1[C@@H](C2)N(CC1CC1)CC3 | 5.16 |
| C[C@H]1CCC[C@]23CCN(C)[C@H](Cc4ccc(O)cc42)C13 (some centres undefined) | 5.32 |
| CC1CC[C@]23CCN(C)[C@H](Cc4ccc(O)cc42)C3C1 (some centres undefined) | 5.56 |
| COc1ccc2c(c1)[C@@]13CCCC[C@H]1[C@@H](C2)N(C)CC3 | 5.84 |
| CC[C@H]1CC[C@@H]2Oc3c(OC)ccc4c3[C@@]23CCN(CC2CC2)[C@H](C4)C13 (some centres undefined) | 5.18 |
| COc1ccc2c3c1O[C@H]1CCCC4[C@@H](C2)N(C)CC[C@@]341 (some centres undefined) | 5.54 |
| C[C@H]1CCC[C@]23CCN(CC4CCC4)[C@H](Cc4ccc(O)cc42)C13 (stereo in doubt; 41) | 6.6 |
| COc1ccc2c(c1)[C@@]13CCC(C)CC1[C@@H](C2)N(CC1CCC1)CC3 (some centres undefined) | 5.16 |
| COc1ccc2c(c1)[C@@]13CCC(C)[C@H](C)C1[C@@H](C2)N(C)CC3 (some centres undefined) | 5.95 |
| C[C@H]1CCC2Oc3c(O)ccc4c3[C@@]23CCN(C)[C@H](C4)C13 (some centres undefined) | 6.03 |
| CC[C@H]1C(C)CC[C@]23CCN(CC4CCC4)[C@H](Cc4ccc(OC)cc42)C13 (some centres undefined) | 5.04 |
| Oc1ccc2c(c1)[C@@]13CCCC[C@H]1[C@@H](C2)N(CC1CCC1)CC3 | 6.45 |
| CN1CC[C@]23c4c5ccc(O)c4O[C@H]2CCCC3[C@H]1C5 (some centres undefined) | 5.95 |
| Oc1ccc2c3c1O[C@H]1CCCC4[C@@H](C2)N(CC2CCC2)CC[C@@]341 (some centres undefined) | 6.49 |
| Oc1ccc2c3c1O[C@H]1CCCC4[C@@H](C2)N(CC2CC2)CC[C@@]341 (some centres undefined) | 5.37 |
| COc1ccc2c(c1)[C@]13CCN(C)[C@H](C2)[C@@H]1C=CC(=O)C3 | 6.45 |
| COc1ccc2c(c1)[C@@]13CCC(C)CC1[C@@H](C2)N(CC1CC1)CC3 (some centres undefined) | 5.97 |
| C[C@H]1CCC[C@]23CCN(CC4CCC4)[C@H](Cc4ccc(O)cc42)C13 (stereo in doubt; 46) | 6.41 |
| COc1ccc2c(c1)[C@@]13CCCCC1[C@@H](C2)N(CC1CCC1)CC3 (some centres undefined) | 6.09 |
| C[C@H]1CC[C@@H]2Oc3c(O)ccc4c3[C@@]23CCN(CC2CCC2)[C@H](C4)C13 (some centres undefined) | 6.41 |
| COc1ccc2c(c1)[C@]13CCN(C)[C@H](C2)[C@@H]1C=C(C)C(=O)C3 | 5.67 |
| CC1CC[C@]23CCN(CC4CCC4)[C@H](Cc4ccc(O)cc42)C3C1 (some centres undefined) | 6.71 |

| Compound | Log AP |
| --- | --- |
| CC[C@H]1CCC[C@]23CCN(CC4CCC4)[C@H](Cc4ccc(OC)cc42)C13 (some centres undefined) | 5.47 |
| C[C@H]1CC(=O)C[C@]23CCN(C)[C@H](Cc4ccc(O)cc42)[C@@H]13 | 6.32 |
| CCC[C@H]1CCC[C@]23CCN(CC4CC4)[C@H](Cc4ccc(OC)cc42)C13 (some centres undefined) | 4.76 |
| COc1ccc2c3c1O[C@H]1CCCC4[C@@H](C2)N(CC2CCC2)CC[C@@]341 (some centres undefined) | 5.58 |
| CC[C@H]1CCC2Oc3c(OC)ccc4c3[C@@]23CCN(C)[C@H](C4)C13 (some centres undefined) | 5.72 |
| COc1ccc2c(c1)[C@]13CCN(CC4CCC4)[C@H](C2)[C@H]1CC(C)C(=O)C3 (some centres undefined) | 4.68 |
| CC[C@H]1CCC[C@]23CCN(C)[C@H](Cc4ccc(OC)cc42)C13 (some centres undefined) | 5.93 |
| COc1ccc2c(c1)[C@@]13CCC[C@H](C)C1[C@@H](C2)N(CC1CC1)CC3 (some centres undefined) | 6.59 |
| CC1CC[C@]23CCN(CC4CCC4)[C@H](Cc4ccc(O)cc42)C3[C@H]1C (stereo in doubt; 40) | 6.23 |
| CC1CC[C@]23CCN(CC4CC4)[C@H](Cc4ccc(O)cc42)C3C1 (some centres undefined) | 5.24 |
| C[C@H]1CCC[C@]23CCN(C)[C@H](Cc4ccc(O)cc42)[C@H]13 | 5.12 |
| CCC[C@H]1CCC[C@]23CCN(C)[C@H](Cc4ccc(OC)cc42)C13 (some centres undefined) | 4.9 |
| COc1ccc2c(c1)[C@@]13CCC(C)[C@H](C)C1[C@@H](C2)N(CC1CCC1)CC3 (some centres undefined) | 5.25 |
| COc1ccc2c3c1OC1CC[C@H](C)C4[C@@H](C2)N(CC2CCC2)CC[C@]314 (some centres undefined) | 5.26 |
| COc1ccc2c(c1)[C@@]13CCC[C@H](C)C1[C@@H](C2)N(C)CC3 (some centres undefined) | 5.87 |
| C[C@H]1CC(=O)C[C@]23CCN(CC4CCC4)[C@H](Cc4ccc(O)cc42)[C@@H]13 | 5.75 |
| COc1ccc2c(c1)[C@@]13CCCCC1[C@@H](C2)N(CC1CC1)CC3 (some centres undefined) | 6.87 |
| COc1ccc2c3c1OC1CC[C@H](C)C4[C@@H](C2)N(CC2CC2)CC[C@]314 (some centres undefined) | 5.16 |
| C[C@H]1CCC[C@]23CCN(CC4CC4)[C@H](Cc4ccc(O)cc42)C13 (some centres undefined) | 4.81 |
| O=C1CC[C@@H]2[C@H]3Cc4ccc(O)cc4[C@@]2(CCN3CC2CCC2)C1 | 5.92 |
| CC[C@H]1C(C)CC[C@]23CCN(C)[C@H](Cc4ccc(OC)cc42)C13 (some centres undefined) | 5.69 |
| CC[C@H]1C(C)CC[C@]23CCN(CC4CCC4)[C@H](Cc4ccc(O)cc42)C13 (some centres undefined) | 5.82 |
| CC[C@H]1CCC[C@]23CCN(CC4CC4)[C@H](Cc4ccc(OC)cc42)C13 (some centres undefined) | 5.91 |
| CCC[C@H]1CC[C@@H]2Oc3c(OC)ccc4c3[C@@]23CCN(C)[C@H](C4)C13 (some centres undefined) | 4.87 |
| COc1ccc2c(c1)[C@@]13CCC[C@H](C)C1[C@@H](C2)N(CC1CCC1)CC3 (some centres undefined) | 5.99 |
| COc1ccc2c3c1OC1CC[C@H](C)C4[C@@H](C2)N(C)CC[C@]314 (some centres undefined) | 5.45 |
| COc1ccc2c(c1)[C@@]13CCC(C)[C@H](C)C1[C@@H](C2)N(CC1CC1)CC3 (some centres undefined) | 6.15 |
